Reference: US12202835B2, “Substituted aromatic ring-linked dioxinoquinazolines and dioxinoquinolines as kinase inhibitors” (BEIJING SCITECH-MQ PHARMACEUTICALS LIMITED, priority 2018, dated 2025)

Assays:
[1] = molecular target: VEGFR-2 kinase (Homo sapiens (Human), UniProt P35968); assay: Assay of small molecular compounds for inhibiting the activity of VEGFR-2 kinase (LANCE TR-FRET); format: biochemical; conditions: read-out: VEGFR2 IC50
Method in brief: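 LANCE TR-FRET with human VEGFR-2 (2× stock 0.5 nM) preincubated 30 min with compound (final 2500 to 0.042 nM, 11-point 3-fold), then ULight-JAK-1 (Tyr1023) peptide/ATP added (4× stocks 200 nM/40 μM). Reaction 60 min room temperature, 4% DMSO; IC50 from inhibition-rate curve.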

[2] = molecular target: c-MET kinase (Homo sapiens (Human), UniProt P08581); assay: Assay of small molecular compounds for inhibiting the activity of c-MET kinase (LANCE TR-FRET); format: biochemical; conditions: read-out: CMET IC50
Method in brief: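 LANCE TR-FRET assay with c-MET at 1 nM final after a 5 min room-temperature preincubation with compound (11-point, 3-fold series, 2500–0.042 nM final, 4% DMSO). ULight-JAK-1 (Tyr1023) peptide (100 nM final) and ATP (10 μM final) reacted 60 min in the dark. Inhibition was taken relative to controls, then IC50 fitted.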

Chain of VEGFR-2 kinase (P35968 20-1356): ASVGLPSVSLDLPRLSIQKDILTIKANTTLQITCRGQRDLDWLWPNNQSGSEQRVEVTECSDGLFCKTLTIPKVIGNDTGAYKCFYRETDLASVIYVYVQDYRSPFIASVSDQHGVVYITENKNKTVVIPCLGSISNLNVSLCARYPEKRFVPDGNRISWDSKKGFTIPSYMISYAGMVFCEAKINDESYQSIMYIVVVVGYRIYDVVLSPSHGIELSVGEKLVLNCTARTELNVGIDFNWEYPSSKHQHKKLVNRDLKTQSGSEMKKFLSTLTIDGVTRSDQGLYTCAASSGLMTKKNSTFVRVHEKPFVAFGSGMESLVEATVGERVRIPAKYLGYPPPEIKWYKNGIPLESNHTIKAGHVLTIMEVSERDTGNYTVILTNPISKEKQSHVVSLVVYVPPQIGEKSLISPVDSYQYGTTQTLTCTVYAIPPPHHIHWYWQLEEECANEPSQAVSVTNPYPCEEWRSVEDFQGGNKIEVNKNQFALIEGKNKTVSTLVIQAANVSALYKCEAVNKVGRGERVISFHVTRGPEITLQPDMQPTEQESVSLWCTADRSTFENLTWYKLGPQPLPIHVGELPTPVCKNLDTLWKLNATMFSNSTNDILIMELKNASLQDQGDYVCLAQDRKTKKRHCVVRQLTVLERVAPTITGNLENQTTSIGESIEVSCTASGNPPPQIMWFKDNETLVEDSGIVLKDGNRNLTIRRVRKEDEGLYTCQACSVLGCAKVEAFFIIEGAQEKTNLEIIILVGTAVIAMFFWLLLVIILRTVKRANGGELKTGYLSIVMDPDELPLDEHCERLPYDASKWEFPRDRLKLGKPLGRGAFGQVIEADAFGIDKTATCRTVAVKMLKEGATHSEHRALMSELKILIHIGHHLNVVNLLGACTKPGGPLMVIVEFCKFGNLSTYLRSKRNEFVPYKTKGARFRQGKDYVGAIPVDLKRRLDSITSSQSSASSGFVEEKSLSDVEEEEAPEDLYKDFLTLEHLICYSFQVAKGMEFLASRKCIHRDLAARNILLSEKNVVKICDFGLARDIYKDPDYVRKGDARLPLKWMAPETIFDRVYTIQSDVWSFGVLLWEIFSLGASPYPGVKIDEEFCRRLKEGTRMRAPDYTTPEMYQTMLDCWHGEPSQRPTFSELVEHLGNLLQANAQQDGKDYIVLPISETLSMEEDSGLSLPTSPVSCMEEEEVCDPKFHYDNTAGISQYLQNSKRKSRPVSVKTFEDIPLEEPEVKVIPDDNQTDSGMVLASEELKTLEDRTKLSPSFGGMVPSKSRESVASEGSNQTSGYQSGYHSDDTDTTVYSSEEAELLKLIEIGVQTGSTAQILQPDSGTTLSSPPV
Chain of c-MET kinase (P08581 25-1390): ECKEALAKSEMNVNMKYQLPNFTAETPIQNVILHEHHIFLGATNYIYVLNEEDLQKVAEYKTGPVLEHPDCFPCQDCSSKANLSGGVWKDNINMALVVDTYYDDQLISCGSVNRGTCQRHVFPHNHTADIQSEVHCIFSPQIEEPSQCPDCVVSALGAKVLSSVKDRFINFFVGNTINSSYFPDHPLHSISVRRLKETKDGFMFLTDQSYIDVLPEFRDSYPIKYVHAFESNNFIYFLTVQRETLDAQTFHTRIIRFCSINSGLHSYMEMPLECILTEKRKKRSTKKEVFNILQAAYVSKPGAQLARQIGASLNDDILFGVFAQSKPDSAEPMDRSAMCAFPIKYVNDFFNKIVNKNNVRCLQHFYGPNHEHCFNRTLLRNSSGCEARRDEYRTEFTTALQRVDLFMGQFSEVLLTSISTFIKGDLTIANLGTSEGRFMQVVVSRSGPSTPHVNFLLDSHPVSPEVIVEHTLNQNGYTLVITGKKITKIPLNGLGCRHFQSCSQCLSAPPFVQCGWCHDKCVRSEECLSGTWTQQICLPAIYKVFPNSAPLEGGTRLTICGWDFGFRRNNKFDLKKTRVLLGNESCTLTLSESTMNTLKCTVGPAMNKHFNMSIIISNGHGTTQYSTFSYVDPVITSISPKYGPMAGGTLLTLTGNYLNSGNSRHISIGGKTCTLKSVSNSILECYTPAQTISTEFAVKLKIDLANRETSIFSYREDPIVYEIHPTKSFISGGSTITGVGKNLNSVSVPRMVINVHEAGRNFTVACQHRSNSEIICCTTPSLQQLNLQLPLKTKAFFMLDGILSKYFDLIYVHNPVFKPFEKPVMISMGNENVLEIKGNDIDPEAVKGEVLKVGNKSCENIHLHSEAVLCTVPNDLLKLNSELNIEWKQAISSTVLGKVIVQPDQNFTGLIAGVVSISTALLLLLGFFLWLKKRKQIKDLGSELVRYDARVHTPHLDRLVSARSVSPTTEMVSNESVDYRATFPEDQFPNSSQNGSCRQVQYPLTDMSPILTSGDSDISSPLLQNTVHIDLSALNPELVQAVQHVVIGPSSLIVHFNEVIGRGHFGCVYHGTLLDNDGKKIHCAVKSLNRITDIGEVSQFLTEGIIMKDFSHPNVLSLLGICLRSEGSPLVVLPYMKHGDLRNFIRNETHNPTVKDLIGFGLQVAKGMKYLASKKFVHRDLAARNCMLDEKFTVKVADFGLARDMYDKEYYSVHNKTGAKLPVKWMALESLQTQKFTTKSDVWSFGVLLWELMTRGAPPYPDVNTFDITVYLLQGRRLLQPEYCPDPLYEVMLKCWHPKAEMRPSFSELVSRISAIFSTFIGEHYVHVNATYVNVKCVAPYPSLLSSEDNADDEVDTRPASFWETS

Compound | IC50 [1] [µM] | IC50 [2] [µM]
COc1ccn(-c2ccc(F)cc2)c(=O)c1C(=O)Nc1ccc(Oc2ccnc3ccc4c(c23)OCCO4)cc1F [Example 172, N-(4-((2,3-dihydro-[1,4]dioxino[2,3-f]quinolin-10-yl)oxy)-2-fluorophenyl)-1-(4-fluorophenyl)-4-methoxy-2-oxo-1,2-dihydropyridine-3-carboxamide] | > 5 | 0.05 to 0.5
O=C(Nc1ccc(Oc2ccnc3ccc4c(c23)OCCO4)cc1F)c1cccn(-c2ccc(F)cc2)c1=O [Example 170, N-(4-((2,3-dihydro-[1,4]dioxino[2,3-f]quinolin-10-yl)oxy)-2-fluorophenyl)-1-(4-fluorophenyl)-2-oxo-1,2-dihydropyridine-3-carboxamide] | 0.5 to 5 | 0.05 to 0.5
CCOc1cc2nccc(Oc3ccc(NC(=O)c4cccn(-c5ccc(F)cc5)c4=O)c(Cl)c3)c2c2c1OCCO2 [Example 127, N-(2-chloro-4-((5-ethoxy-2,3-dihydro-[1,4]dioxino[2,3-f]quinolin-10-yl)oxy)phenyl)-1-(4-fluorophenyl)-2-oxo-1,2-dihydropyridine-3-carboxamide] | 0.5 to 5 | ≤ 0.05
CCn1cc(C(=O)Nc2cc(F)c(Oc3ccnc4cc(OCCOC)c5c(c34)OCCO5)cc2C)c(=O)n(-c2ccc(F)cc2)c1=O [Example 180, N-(5-fluoro-4-((5-(2-methoxyethoxy)-2,3-dihydro-[1,4]dioxino[2,3-f]quinolin-10-yl)oxy)-2-methylphenyl)-3-(4-fluorophenyl)-1-ethyl-2,4-dioxo-1,2,3,4-tetrahydropyrimidine-5-carboxamide] | 0.5 to 5 | ≤ 0.05
Cn1cc(C(=O)Nc2ccc(Oc3ccnc4ccc5c(c34)OCCO5)cc2F)c(=O)n(-c2ccc(F)cc2)c1=O [Example 162, N-(4-((2,3-dihydro-[1,4]dioxino[2,3-f]quinolin-10-yl)oxy)-2-fluorophenyl)-3-(4-fluorophenyl)-1-methyl-2,4-dioxo-1,2,3,4-tetrahydropyrimidine-5-carboxamide] | 0.5 to 5 | 0.5 to 5
COc1cc2nccc(Oc3ccc(NC(=O)c4cn(C)c(=O)n(-c5ccc(F)cc5)c4=O)c(F)c3)c2c2c1OCCO2 [Example 153, N-(2-fluoro-4-((5-methoxy-2,3-dihydro-[1,4]dioxino[2,3-f]quinolin-10-yl)oxy)phenyl)-3-(4-fluorophenyl)-1-methyl-2,4-dioxo-1,2,3,4-tetrahydropyrimidine-5-carboxamide] | 0.5 to 5 | ≤ 0.05
COc1ccn(-c2ccc(F)cc2)c(=O)c1C(=O)Nc1ccc(Oc2ccnc3cc(OCC(C)(C)O)c4c(c23)OCCO4)cc1Cl [Example 140, N-(2-chloro-4-((5-(2-hydroxy-2-methylpropoxy)-2,3-dihydro-[1,4]dioxino[2,3-f]quinolin-10-yl)oxy)phenyl)-1-(4-fluorophenyl)-4-methoxy-2-oxo-1,2-dihydropyridine-3-carboxamide] | 0.5 to 5 | ≤ 0.05
CCOc1cc2nccc(Oc3ccc(NC(=O)c4cn(C)c(=O)n(-c5ccc(F)cc5)c4=O)c(Cl)c3)c2c2c1OCCO2 [Example 129, N-(2-chloro-4-((5-ethoxy-2,3-dihydro-[1,4]dioxino[2,3-f]quinolin-10-yl)oxy)phenyl)-3-(4-fluorophenyl)-1-methyl-2,4-dioxo-1,2,3,4-tetrahydropyrimidine-5-carboxamide] | 0.5 to 5 | ≤ 0.05
CCn1cc(C(=O)Nc2ccc(Oc3ccnc4cc(OC)c5c(c34)OCCO5)cc2)c(=O)n(-c2ccc(F)cc2)c1=O [Example 146, N-(4-((5-methoxy-2,3-dihydro-[1,4]dioxino[2,3-f]quinolin-10-yl)oxy)phenyl)-3-(4-fluorophenyl)-1-ethyl-2,4-dioxo-1,2,3,4-tetrahydropyrimidine-5-carboxamide] | > 5 | ≤ 0.05
COc1cc2nccc(Oc3ccc(NC(=O)c4cn(C)c(=O)n(-c5ccc(F)cc5)c4=O)c(Cl)c3)c2c2c1OCCO2 [Example 125, N-(2-chloro-4-((5-methoxy-2,3-dihydro-[1,4]dioxino[2,3-f]quinolin-10-yl)oxy)phenyl)-3-(4-fluorophenyl)-1-methyl-2,4-dioxo-1,2,3,4-tetrahydropyrimidine-5-carboxamide] |  | 0.05 to 0.5

The remaining lines, values ahead:

IC50 [1] [µM] | IC50 [2] [µM] | Compound
0.05 to 0.5 | ≤ 0.05 | COc1ccn(-c2ccc(F)cc2)c(=O)c1C(=O)Nc1ccc(Oc2ccnc3cc(OCCCN4CCCCC4)c4c(c23)OCCO4)cc1Cl [Example 136, N-(2-chloro-4-((5-((3-piperidin-1-yl)propoxy)-2,3-dihydro-[1,4]dioxino[2,3-f]quinolin-10-yl)oxy)phenyl)-1-(4-fluorophenyl)-4-methoxy-2-oxo-1,2-dihydropyridine-3-carboxamide]
0.5 to 5 | ≤ 0.05 | COc1cc2nccc(Oc3cc(C)c(NC(=O)c4cn(C)c(=O)n(-c5ccc(F)cc5)c4=O)cc3F)c2c2c1OCCO2 [Example 177, N-(5-fluoro-4-((5-methoxy-2,3-dihydro-[1,4]dioxino[2,3-f]quinolin-10-yl)oxy)-2-methylphenyl)-3-(4-fluorophenyl)-1-methyl-2,4-dioxo-1,2,3,4-tetrahydropyrimidine-5-carboxamide]
0.05 to 0.5 | ≤ 0.05 | COCCOc1cc2nccc(Oc3ccc(NC(=O)c4cn(C)c(=O)n(-c5ccc(F)cc5)c4=O)cc3)c2c2c1OCCO2 [Example 147, N-(4-((5-(2-methoxyethoxy)-2,3-dihydro-[1,4]dioxino[2,3-f]quinolin-10-yl)oxy)phenyl)-3-(4-fluorophenyl)-1-methyl-2,4-dioxo-1,2,3,4-tetrahydropyrimidine-5-carboxamide]
0.5 to 5 | ≤ 0.05 | COCCOc1cc2nccc(Oc3cc(C)c(NC(=O)c4cn(C)c(=O)n(-c5ccc(F)cc5)c4=O)cc3F)c2c2c1OCCO2 [Example 179, N-(5-fluoro-4-((5-(2-methoxyethoxy)-2,3-dihydro-[1,4]dioxino[2,3-f]quinolin-10-yl)oxy)-2-methylphenyl)-3-(4-fluorophenyl)-1-methyl-2,4-dioxo-1,2,3,4-tetrahydropyrimidine-5-carboxamide]
0.5 to 5 | ≤ 0.05 | Cn1cc(C(=O)Nc2ccc(Oc3ccnc4cc(OCC(C)(C)O)c5c(c34)OCCO5)cc2)c(=O)n(-c2ccc(F)cc2)c1=O [Example 149, N-(4-((5-(2-hydroxy-2-methylpropoxy)-2,3-dihydro-[1,4]dioxino[2,3-f]quinolin-10-yl)oxy)phenyl)-3-(4-fluorophenyl)-1-methyl-2,4-dioxo-1,2,3,4-tetrahydropyrimidine-5-carboxamide]
0.05 to 0.5 | ≤ 0.05 | CCOc1cc2nccc(Oc3ccc(NC(=O)c4c(OCC)ccn(-c5ccc(F)cc5)c4=O)c(Cl)c3)c2c2c1OCCO2 [Example 130, N-(2-chloro-4-((5-ethoxy-2,3-dihydro-[1,4]dioxino[2,3-f]quinolin-10-yl)oxy)phenyl)-1-(4-fluorophenyl)-4-ethoxy-2-oxo-1,2-dihydropyridine-3-carboxamide]
0.5 to 5 | ≤ 0.05 | COCCOc1cc2nccc(Oc3ccc(NC(=O)c4cn(C)c(=O)n(-c5ccc(F)cc5)c4=O)c(F)c3)c2c2c1OCCO2 [Example 155, N-(2-fluoro-4-((5-(2-methoxyethoxy)-2,3-dihydro-[1,4]dioxino[2,3-f]quinolin-10-yl)oxy)phenyl)-3-(4-fluorophenyl)-1-methyl-2,4-dioxo-1,2,3,4-tetrahydropyrimidine-5-carboxamide]
≤ 0.05 | ≤ 0.05 | O=C(Nc1ccc(Oc2ccnc3cc(OCCCN4CCCCC4)c4c(c23)OCCO4)cc1Cl)c1cccn(-c2ccc(F)cc2)c1=O [Example 135, N-(2-chloro-4-((5-((3-piperidin-1-yl)propoxy)-2,3-dihydro-[1,4]dioxino[2,3-f]quinolin-10-yl)oxy)phenyl)-1-(4-fluorophenyl)-2-oxo-1,2-dihydropyridine-3-carboxamide]
0.05 to 0.5 | ≤ 0.05 | CCOc1ccn(-c2ccc(F)cc2)c(=O)c1C(=O)Nc1ccc(Oc2ncnc3cc(OCCCN4CCOCC4)c4c(c23)OCCO4)c(F)c1 [Example 6, N-(3-fluoro-4-((5-(3-morpholinopropoxy)-2,3-dihydro-[1,4]dioxino[2,3-f]quinazolin-10-yl)oxy)phenyl)-1-(4-fluorophenyl)-4-ethoxy-2-oxo-1,2-dihydropyridine-3-carboxamide]
0.5 to 5 | ≤ 0.05 | CCOc1cc2nccc(Oc3ccc(NC(=O)c4c(OC)ccn(-c5ccc(F)cc5)c4=O)c(Cl)c3)c2c2c1OCCO2 [Example 128, N-(2-chloro-4-((5-ethoxy-2,3-dihydro-[1,4]dioxino[2,3-f]quinolin-10-yl)oxy)phenyl)-1-(4-fluorophenyl)-4-methoxy-2-oxo-1,2-dihydropyridine-3-carboxamide]
≤ 0.05 | ≤ 0.05 | Cn1cc(C(=O)Nc2ccc(Oc3ncnc4cc(OCCCN5CCOCC5)c5c(c34)OCCO5)c(F)c2)c(=O)n(-c2ccc(F)cc2)c1=O [Example 30, N-(3-fluoro-4-((5-(3-morpholinopropoxy)-2,3-dihydro-[1,4]dioxino[2,3-f]quinazolin-10-yl)oxy)phenyl)-3-(4-fluorophenyl)-1-methyl-2,4-dioxo-1,2,3,4-tetrahydropyrimidine-5-carboxamide]
≤ 0.05 | ≤ 0.05 | CCOc1ccn(-c2ccc(F)cc2)c(=O)c1C(=O)Nc1ccc(Oc2ccnc3cc(OCCCN4CCCCC4)c4c(c23)OCCO4)cc1Cl [Example 138, N-(2-chloro-4-((5-((3-piperidin-1-yl)propoxy)-2,3-dihydro-[1,4]dioxino[2,3-f]quinolin-10-yl)oxy)phenyl)-1-(4-fluorophenyl)-4-ethoxy-2-oxo-1,2-dihydropyridine-3-carboxamide]
